Experimental data: US7605163B2, “Benzoyl-piperazine derivatives” (Hoffmann-La Roche Inc., priority 2003, dated 2009)

Molecular target: T1, mGlyT-1b (Mus musculus, UniProt P28571)
T1 construct: host or cells: Flp-in-CHO cells
T1 sequence (P28571 1-651 isoform P28571-2): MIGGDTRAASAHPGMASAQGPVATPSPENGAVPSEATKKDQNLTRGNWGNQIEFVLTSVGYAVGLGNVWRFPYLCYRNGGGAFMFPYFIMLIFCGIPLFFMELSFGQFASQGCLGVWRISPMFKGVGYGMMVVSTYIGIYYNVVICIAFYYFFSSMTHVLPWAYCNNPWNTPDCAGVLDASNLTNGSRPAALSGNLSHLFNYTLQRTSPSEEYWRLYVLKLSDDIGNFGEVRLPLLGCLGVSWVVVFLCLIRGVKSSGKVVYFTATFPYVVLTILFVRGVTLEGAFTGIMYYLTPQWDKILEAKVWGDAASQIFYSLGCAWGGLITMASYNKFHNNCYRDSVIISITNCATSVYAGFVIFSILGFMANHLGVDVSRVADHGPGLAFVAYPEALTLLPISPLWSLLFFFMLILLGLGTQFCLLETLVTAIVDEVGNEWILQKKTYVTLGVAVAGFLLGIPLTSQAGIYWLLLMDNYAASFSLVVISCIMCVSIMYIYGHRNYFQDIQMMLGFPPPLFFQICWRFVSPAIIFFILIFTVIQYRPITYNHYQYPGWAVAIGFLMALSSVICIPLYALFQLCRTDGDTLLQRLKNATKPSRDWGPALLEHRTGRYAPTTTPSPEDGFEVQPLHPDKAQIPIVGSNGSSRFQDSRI
Assay: Glycine Uptake Inhibition Assay (mGlyT-1b)
Type: cell-based
Conditions: [3H]-glycine uptake inhibition at GlyT-1, Flp-in-CHO cells transfected with mGlyT-1b cDNA
Description: DMEM complete medium: Nutrient mixture F-12 (Gibco Life-technologies), fetal bovine serum (FBS) 5%, (Gibco life technologies), Penicillin/Streptomycin 1% (Gibco life technologies), Hygromycin 0.6 mg/ml (Gibco life technologies), Glutamine 1 mM Gibco life technologies)
Uptake buffer (UB): 150 mM NaCl, 10 mM Hepes-Tris, pH 7.4, 1 mM CaCl2, 2.5 mM KCl, 2.5 mM MgSO4, 10 mM (+) D-glucose. Flp-in™-CHO (Invitrogen Cat n^o R758-07) cells stably transfected with mGlyT1b cDNA.
Glycine Uptake Inhibition Assay (mGlyT-1b)
On day 1 mammalian cells, (Flp-in™-CHO), transfected with mGlyT-1b cDNA, were plated at the density of 40,000 cells/well in complete F-12 medium, without hygromycin in 96-well culture plates. On day 2, the medium was aspirated, and the cells were washed twice with uptake buffer (UB). The cells were then incubated for 20 min at 22° C. with either (i) no potential competitor, (ii) 10 mM non-radioactive glycine, (iii) a concentration of a potential inhibitor. A range of concentrations of the potential inhibitor was used to generate data for calculating the concentration of inhibitor resulting in 50% of the effect (e.g. IC50, the concentration of the competitor inhibiting glycine uptake of 50%).
A solution was then immediately added containing [^3H]-glycine 60 nM (11-16 Ci/mmol) and 25 μM non-radioactive glycine. The plates were incubated with gentle shaking, and the reaction was stopped by aspiration of the mixture and washing (three times) with ice-cold UB. The cells were lysed with scintillation liquid, shaken 3 hours and the radioactivity in the cells counted using a scintillation counter.

IC50 [nM] | SMILES
8 | CC(C)(C)COc1ccc([N+](=O)[O-])cc1C(=O)N1CCN(c2ccc(C(F)(F)F)cc2)CC1 [Example 68, [2-(2,2-Dimethyl-propoxy)-5-nitro-phenyl]-[4-(4-trifluoromethyl-phenyl)-piperazin-1-yl]-methanone]
8 | O=C(c1cc([N+](=O)[O-])ccc1OC1CCCC1)N1CCN(c2ccc(C(F)(F)F)cc2)CC1 [Example 71, (2-Cyclopentyloxy-5-nitro-phenyl)-[4-(4-trifluoromethyl-phenyl)-piperazin-1-yl]-methanone]
26 | CCCOc1ccc([N+](=O)[O-])cc1C(=O)N1CCN(c2ccc(C(F)(F)F)cc2)CC1 [Example 72, (5-Nitro-2-propoxy-phenyl)-[4-(4-trifluoromethyl-phenyl)-piperazin-1-yl]-methanone]
29 | O=C(c1cc([N+](=O)[O-])ccc1OCC(F)(F)C(F)F)N1CCN(c2ccc(C(F)(F)F)cc2)CC1 [Example 80, [5-Nitro-2-(2,2,3,3-tetrafluoro-propoxy)-phenyl]-[4-(4-trifluoromethyl-phenyl)-piperazin-1-yl]-methanone]
40 | O=C(c1cc([N+](=O)[O-])ccc1OCC(F)(F)F)N1CCN(c2ccc(C(F)(F)F)cc2)CC1 [Example 84, [5-Nitro-2-(2,2,2-trifluoro-ethoxy)-phenyl]-[4-(4-trifluoromethyl-phenyl)-piperazin-1-yl]-methanone]
50 | O=C(c1cc([N+](=O)[O-])ccc1OCCCl)N1CCN(c2ccc(C(F)(F)F)cc2)CC1 [Example 92, [2-(2-Chloro-ethoxy)-5-nitro-phenyl]-[4-(4-trifluoromethyl-phenyl)-piperazin-1-yl]-methanone]
35 | O=C(c1cc([N+](=O)[O-])ccc1OC1CCOCC1)N1CCN(c2ccc(C(F)(F)F)cc2)CC1 [Example 95, [5-Nitro-2-(tetrahydro-pyran-4-yloxy)-phenyl]-[4-(4-trifluoromethyl-phenyl)-piperazin-1-yl]-methanone]
20 | O=C(c1cc([N+](=O)[O-])ccc1OCC(F)(F)C(F)(F)F)N1CCN(c2ccc(C(F)(F)F)cc2)CC1 [Example 100, [5-Nitro-2-(2,2,3,3,3-pentafluoro-propoxy)-phenyl]-[4-(4-trifluoromethyl-phenyl)-piperazin-1-yl]-methanone]

Further lines, the compound ahead of its results:

SMILES | IC50 [nM]
CCCCOc1ccc([N+](=O)[O-])cc1C(=O)N1CCN(c2ccc(C(F)(F)F)cc2)CC1 [Example 66, (2-Butoxy-5-nitro-phenyl)-[4-(4-trifluoromethyl-phenyl)-piperazin-1-yl]-methanone] | 32
CC(C)COc1ccc([N+](=O)[O-])cc1C(=O)N1CCN(c2ccc(C(F)(F)F)cc2)CC1 [Example 70, (2-Isobutoxy-5-nitro-phenyl)-[4-(4-trifluoromethyl-phenyl)-piperazin-1-yl]-methanone] | 8
O=C(c1cc([N+](=O)[O-])ccc1OC1CCC1)N1CCN(c2ccc(C(F)(F)F)cc2)CC1 [Example 74, (2-Cyclobutoxy-5-nitro-phenyl)-[4-(4-trifluoromethyl-phenyl)-piperazin-1-yl]-methanone] | 16
O=C(c1cc([N+](=O)[O-])ccc1OC1CC2CCC1C2)N1CCN(c2ccc(C(F)(F)F)cc2)CC1 (centres unmarked) [Example 88, [2-(Bicyclo[2.2.1]hept-2-yloxy)-5-nitro-phenyl]-[4-(4-trifluoromethyl-phenyl)-piperazin-1-yl]-methanone] | 7
CC(C)(Oc1ccc(S(C)(=O)=O)cc1C(=O)N1CCN(c2ccc(C(F)(F)F)cn2)CC1)C(F)(F)F [Example 105, [5-Methanesulfonyl-2-(2,2,2-trifluoro-1,1-dimethyl-ethoxy)-phenyl]-[4-(5-trifluoromethyl-pyridin-2-yl)-piperazin-1-yl]-methanone] | 39
CC(C)Oc1ccc(S(C)(=O)=O)cc1C(=O)N1CCN(c2ccc(S(=O)(=O)C(F)(F)F)cc2)CC1 [Example 328, (2-Isopropoxy-5-methanesulfonyl-phenyl)-[4-(4-trifluoromethanesulfonyl-phenyl)-piperazin-1-yl]-methanone] | 32
